In US7666885B2, “Enzyme inhibitors” (Consejo Superior de Investigaciones Cientificas, priority 2000, dated 2010) one finds IC50 and melting point data, which are given here for 46 compounds.

T1 sequence (P49841 whole entry, species assumed): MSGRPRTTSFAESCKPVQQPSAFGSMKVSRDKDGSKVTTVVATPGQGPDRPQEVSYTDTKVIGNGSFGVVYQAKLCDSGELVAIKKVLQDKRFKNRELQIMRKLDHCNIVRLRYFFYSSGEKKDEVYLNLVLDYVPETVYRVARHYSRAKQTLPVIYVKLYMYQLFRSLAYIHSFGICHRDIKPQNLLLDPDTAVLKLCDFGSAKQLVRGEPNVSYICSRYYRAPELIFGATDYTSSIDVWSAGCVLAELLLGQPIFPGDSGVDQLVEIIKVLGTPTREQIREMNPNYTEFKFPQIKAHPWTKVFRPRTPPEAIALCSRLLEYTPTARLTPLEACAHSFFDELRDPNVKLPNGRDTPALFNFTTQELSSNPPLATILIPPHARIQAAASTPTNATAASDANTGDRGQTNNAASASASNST

The first data set has as its target T1, GSK-3β (Homo sapiens, UniProt P49841).
T1 construct: purchased Sigma
Put plainly: GSK-3β inhibition (radiometric, GS 1 peptide). Format: biochemical. The following applies: GSK-3 enzyme (Sigma), 15 μM ATP, GS 1 peptide; Tables 3, 3a, 4; read-out: IC50. As to the method: GSK-3β inhibition: The GSK-3 activity was determined by incubation of a mixture of GSK-3 enzyme (Sigma), a phosphate source and a GSK-3 substrate in the presence and in the absence of the corresponding test compound, and by measuring the GSK-3 activity of this mixture.
The reaction is quenched by addition of an aliquot of the reaction mixture in phosphocelullose p81 papers. These papers are washed three times with phosphoric acid 1% and the radioactivity incorporated to the GS 1 peptide is measured in a liquid scintillation counter.
As to “3-(4-Ethyl-3-oxo-2-methyl-1,2,4-thiadiazolidin-5-ylidine)aminopyridine-1-oxide [Compound 23]”, the IC50 (as a rule, the concentration that inhibits the measured activity by half) is above 100 µM.

“3-[5-(4-Ethyl-2-methyl-3-oxo)imino-1,2,4-thiadiazolidyl]-1-methyl-pyridinium iodide [Compound 24]”: the IC50 is above 100 µM.

Turning to “4-Ethyl-5-[imino-(1-methyl-piperidin-3-yl)]-2-methyl-1,2,4-thiadiazolidin-3-One [Compound 25]”, the IC50 was above 100 µM.

Take `O=C1CCC(=O)C1` [Compound 1-A]: the IC50 is above 100 µM.

As to `O=C1C=CC(=O)C1` [Compound 1-B], the IC50 was determined as 12 µM.

Turning to `O=C1NC(=O)c2ccccc21` [Compound 1-F], the 50% inhibitory concentration (IC50) was above 100 µM.

For `CCn1c(=O)sn(C)c1=O` [Compound 2, 4-Ethyl-2-methyl-1,2,4-thiadiazolidine-3,5-dione], the IC50 worked out at 5 µM.

On to `O=C1CCC(=O)N1Cc1ccccc1` [Compound 2-E], for which the IC50 was above 100 µM.

`O=C1c2ccccc2C(=O)N1Cc1ccccc1` [Compound 2-F]: the IC50 is above 100 µM.

As for `Cn1c(=O)n(-c2ccccc2)c(=O)n1C` [Compound 2-H], the IC50 is above 100 µM.

For `CCCn1sc(=O)n(CC)c1=O` [Compound 3, 4-Ethyl-2-n-propyl-1,2,4-thiadiazolidine-3,5-dione], the IC50 is 10 µM.

As for `O=C(O)CN1C(=O)CSC1=S` [Compound 3-G, (4-oxo-2-thioxo-thiazolidin-3-yl)-acetic acid], the IC50 is above 100 µM.

As for `CCn1c(=O)sn(C2CCCCC2)c1=O` [Compound 4, 2-Cyclohexyl-4-ethyl-1,2,4-thiadiazolidine-3,5-dione], the IC50 came out at 10 µM.

Take `Cn1sc(=O)n(-c2ccccc2)c1=O` [Compound 5, 4-Phenyl-2-methyl-1,2,4-thiadiazolidin-3,5-dione]: the IC50 is 2 µM.

Consider `O=C1CSC(=S)N1CCc1ccccc1` [Compound 5-G, 3-Phenethyl-2-thioxo-thiazolidin-4-One], for which the IC50 was 35 µM.

`CCOC(=O)Cn1c(=O)sn(C)c1=O` [Compound 6, 4-(Ethoxycarbonylmethyl)-2-methyl-1,2,4-thiadiazolidine-3,5-dione]: the IC50 amounted to 5 µM.

In the case of `O=C(CN1C(=O)CSC1=S)c1ccccc1` [Compound 6-G, 3-Phenacyl-2-thioxo-thiazolidin-4-One], the IC50 is 50 µM.

On to `CCn1sc(=O)n(Cc2ccccc2)c1=O` [Compound 8, 4-Benzyl-2-ethyl-1,2,4-thiadiazolidine-3,5-dione], for which the IC50 was found to be 7 µM.

Regarding `CCn1c(=O)sn(C(C)C)c1=O` [Compound 9, 4-Ethyl-2-isopropyl-1,2,4-thiadiazolidin-3,5-dione], the IC50 is 35 µM.

In the case of `CCn1sc(=O)n(Cc2ccccc2)c1=S` [Compound 10, 4-Benzyl-2-ethyl-5-oxo-1,2,4-thiadiazolidine-3-thione], the concentration for half-maximal inhibition (IC50) was 6 µM.

For `O=c1sn(Cc2ccccc2)c(=S)n1Cc1ccccc1` [Compound 11, 2,4-Dibenzyl-5-oxo-thiadiazolidine-3-thione], the IC50 came out at 10 µM.

For `O=c1sn(-c2ccccc2)c(=S)n1-c1ccccc1` [Compound 12, 2,4-diphenyl-5-oxo-thiadiazolidine-3-thione], the IC50 stood at 20 µM.

Take `CCn1sc(=O)n(CC)c1=O` [Compound 13, 2,4-diethyl-5-oxo-1,2,4-thiadiazolidine-3,5-dione]: the IC50 was determined as 20 µM.

As to `Cc1ccc(-n2c(=O)sn(C)c2=O)cc1` [Compound 15, 4-(4-Methylphenyl)-2-methyl-1,2,4-thiadiazolidine-3,5-dione], the IC50 stood at 5 µM.

For the compound `Cn1sc(=O)n(-c2ccc(Br)cc2)c1=O` [Compound 16, 4-(4-Bromophenyl)-2-methyl-1,2,4-thiadiazolidine-3,5-dione], the IC50 was determined as 3 µM.

For `Cn1sc(=O)n(-c2ccc(F)cc2)c1=O` [Compound 17, 4-(4-Fluorophenyl)-2-methyl-1,2,4-thiadiazolidine-3,5-dione], the IC50 was determined as 4 µM.

In the case of `Cn1sc(=O)n(-c2ccc(Cl)cc2)c1=O` [Compound 18, 4-(4-Chlorophenyl)-2-methyl-1,2,4-thiadiazolidine-3,5-dione], the IC50 turned out to be 4 µM.

`O=C(c1ccccc1)n1sc(=O)n(Cc2ccccc2)c1=O` [Compound 31, 2-Benzoyl-4-benzyl-1,2,4-thiadiazolidine-3,5-dione]: the IC50 came out at 3 µM.

`CCOC(=O)Cn1sc(=O)n(Cc2ccccc2)c1=O` [Compound 33, 4-Benzyl-2-(Ethoxycarbonylmethyl)-1,2,4-thiadiazolidine-3,5-dione]: the IC50 amounted to 4 µM.

As for `CCn1sc(=NO)n(Cc2ccccc2)c1=O` [Compound 36, 4-Benzyl-2-ethyl-1,2,4-thiadiazolidine-3-one-5-oxime], the IC50 was found to be 6 µM.

In the case of `CCn1sc(=O)n(CCc2ccccc2)c1=O` [Compound 41, 2-Ethyl-4-phenethyl-1,2,4-thiadiazolidine-3,5-dione], the IC50 was found to be 8 µM.

As to `O=c1[nH]sc(=O)n1Cc1ccccc1` [Compound 42, 4-Benzyl-1,2,4-thiadiazolidine-3,5-dione], the concentration for half-maximal inhibition (IC50) stood at 50 µM.

Take `CCOC(=O)Cn1sc(=O)n(CC(=O)OCC)c1=O` [Compound 44, 4-(Ethoxycarbonylmethyl)-2-(ethoxycarbonylmethyl)-1,2,4-thiadiazolidine-3,5-dione]: the IC50 amounted to 4 µM.

Consider `CCOC(=O)Cn1c(=O)sn(C)c1=O` [Compound 45, 4-(Ethoxycarbonylmethyl)-2-methyl-1,2,4-thiadiazolidine-3,5-dione], for which the IC50 is 2 µM.

In the case of `CCOC(=O)Cn1c(=O)sn(C(C)C)c1=O` [Compound 46, 4-(Ethoxycarbonylmethyl)-2-isopropyl-1,2,4-thiadiazolidine-3,5-dione], the concentration for half-maximal inhibition (IC50) came out at 7 µM.

On to `CCOC(=O)Cn1c(=O)sn(C(=O)c2ccccc2)c1=O` [Compound 47, 2-Benzoyl-4-(ethoxycarbonylmethyl)-1,2,4-thiadiazolidine-3,5-dione], for which the IC50 stood at 4 µM.

In the case of `CCn1sc(=O)n(-c2ccc([N+](=O)[O-])cc2)c1=O` [Compound 49, 2-Ethyl-4-(4-nitrophenyl)-1,2,4-thiadiazolidine-3,5-dione], the IC50 turned out to be 8.5 µM.

On to `CCn1sc(=NO)n(-c2ccccc2)c1=O` [Compound 50, 2-Ethyl-4-phenyl-1,2,4-thiadiazolidine-3-one-5-oxime], for which the IC50 turned out to be 100 µM.

Still in this data set, the particulars now being: Tables 4a, 4b; read-out: GSK-3β IC50.
Consider `O=C1C=CC(=O)N1CCc1ccccc1` [Compound 4-D, N-phenethylmaleimide], for which the IC50 was 2 µM.

Take `COc1ccc(CN2C(=O)C=CC2=O)cc1` [Compound 7-D, N-(p-methoxybenzyl)maleimide]: the IC50 was 2.5 µM.

`NN1C(=O)CSC1=S` [Compound 7-G]: the IC50 is above 100 µM.

Another data set relates to N2A cells. As to the kind of experiment: Cell cycle blockade. The format is cell-based, mice. The following applies: Mus musculus; N2A cell cultures, Table 5. The procedure:
In parallel, the potential interference of these compounds with the cell cycle was studied on N2A cells. The cell culture was maintained in a Dulbecco medium (DEMEM) with a 10% fethal bovine serum, glutamine (2 mM) and antibiotics.
The first four compounds of general formula (I) gathered in Table 3 were assayed in the described conditions and shown ability to inhibit the cell cycle at an inhibitor concentration comprised between 100 nM and 1 μM. The cellular blockade was initially observed at concentrations comprised between 100-200 nM and was totally effective at 1 μM.
Compound `Cn1sc(=O)n(Cc2ccccc2)c1=O` [Compound 1, 4-Benzyl-2-methyl-1,2,4-thiadiazolidine-3,5-dione] had an IC50 of 4 to 8 µM.

Regarding `CCn1c(=O)sn(C)c1=O` [Compound 2, 4-Ethyl-2-methyl-1,2,4-thiadiazolidine-3,5-dione], the IC50 was 40 to 100 µM.

In turn, `CCCn1sc(=O)n(CC)c1=O` [Compound 3, 4-Ethyl-2-n-propyl-1,2,4-thiadiazolidine-3,5-dione] registered an IC50 of 5 to 10 µM.

Take `CCn1c(=O)sn(C2CCCCC2)c1=O` [Compound 4, 2-Cyclohexyl-4-ethyl-1,2,4-thiadiazolidine-3,5-dione]: the IC50 lay in the range of 6 to 9 µM.

`Cn1sc(=O)n(-c2ccccc2)c1=O` [Compound 5, 4-Phenyl-2-methyl-1,2,4-thiadiazolidin-3,5-dione] returned an IC50 of 4 to 7 µM.

`CCOC(=O)Cn1c(=O)sn(C)c1=O` [Compound 6, 4-(Ethoxycarbonylmethyl)-2-methyl-1,2,4-thiadiazolidine-3,5-dione]: the IC50 lay in the range of 1 to 2 µM.

In turn, `COc1ccc(-n2c(=O)sn(C)c2=O)cc1` [Compound 7, 4-(4-Methoxyphenyl)-2-methyl-1,2,4-thiadiazolidine-3,5-dione] displayed an IC50 of 1 to 2 µM.

Turning to `CCn1sc(=O)n(Cc2ccccc2)c1=O` [Compound 8, 4-Benzyl-2-ethyl-1,2,4-thiadiazolidine-3,5-dione], the IC50 fell in the range of 4 to 7 µM.

Staying with this data set, now noted: N2A cell cultures, Table 5.
Regarding `O=c1sn(Cc2ccccc2)c(=S)n1Cc1ccccc1` [Compound 11, 2,4-Dibenzyl-5-oxo-thiadiazolidine-3-thione], the IC50 is 1 to 2 µM.

In turn, `O=c1sn(-c2ccccc2)c(=S)n1-c1ccccc1` [Compound 12, 2,4-diphenyl-5-oxo-thiadiazolidine-3-thione] returned a half-maximal inhibitory concentration (IC50) of 4 to 8 µM.

System in another data set: not given
Assay: not given
Conditions: not given
In the case of `O=C1C=CC(=O)N1CCCc1ccccc1` [Compound 5-D, N-(3-phenylpropyl)maleimide], the melting point (as a rule, the temperature, or range, at which the solid turns liquid) was in the range of 79 to 80 °C.

As to `O=C1C=CC(=O)N1CCCCCc1ccccc1` [Compound 6-D, N-(5-phenylpentyl)maleimide], the melting point is 49 to 51 °C.

Regarding `COc1ccc(CCN2C(=O)C=CC2=O)cc1` [Compound 8-D, N-(p-Methoxyphenethyl)maleimide], the melting point lay within 79 to 81 °C.
